Assay in all cases: NCI tumour cell line growth inhibition, 48 h
In test [1] the test system is CAKI-1.
Test [2] deals with CCRF-CEM.
The subject of test [3] is HCC 2998.
Test [4] has as its system HOP-62.
In test [5] the test system is Hs-578T.
Test [6] relates to K562.
Test [7] has as its system LOX IMVI.
Test [8] has as its system MCF7.
Test [9] deals with MOLT-4.
Test [10] relates to Malme-3M.
Test [11] relates to NCI-H23.
Test [12] has as its system SF-295.
For test [13], the system named is SF-539.
For test [14], the system named is SK-MEL-2.
The test system of test [15] is SK-MEL-5.
The subject of test [16] is SK-OV-3.
Test [17] has as its system SNB-75.
Test [18] deals with SR.
For test [19], the system named is TK-10.
The test system of test [20] is UACC-62.

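Each compound was tested at five concentrations against cells in 96-well plates for 48 hours. Abbreviation: GI50, concentration required for 50% inhibition of growth.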 Calls of active or inactive are those of the source. Rule as the data show it: active = GI50 up to about 1.1 µM and inactive = higher. A value given as a limit tells only on which side of the number the result lay.

Consider `O=C(NCCNCCNC(=O)c1cc(-c2ccccc2)nc2ccccc12)c1cc(-c2ccccc2)nc2ccccc12`, for which the GI50 is 9.79 µM (inactive) in test [1]; 3.77 µM (inactive) in test [2]; 1.73 µM (inactive) in test [3]; 1.57 µM (inactive) in test [4]; 2.73 µM (inactive) in [5]; 2.16 µM (inactive) in test [6]. Also, the GI50 in test [7] was 1.69 µM (inactive); in test [8] it was 1.78 µM (inactive); in test [9], 2.37 µM (inactive); in [10], 1.92 µM (inactive); in test [11], 3.18 µM (inactive); in test [12], 1.67 µM (inactive). The GI50 in test [13] is 2 µM (inactive); in test [14] it was 1.82 µM (inactive); in [15], 1.77 µM (inactive); in test [16], 7.46 µM (inactive); in [17] it was 1.92 µM (inactive); in test [18] it was 2.57 µM (inactive). Further, the GI50 in [19] is 2.4 µM (inactive); in test [20] it was 2.09 µM (inactive).

Turning to `NCCc1ccc2c(c1)C(=O)c1c(O)ccc(O)c1C2=O`, the GI50 in [1] is 4.84 µM (inactive); in test [2], 3.36 µM (inactive); in test [3], > 23.9 µM (inactive); in test [4], 3.6 µM (inactive); in test [5], 5.98 µM (inactive); in [6], 3.94 µM (inactive). The GI50 in [7] was 4.11 µM (inactive); in test [8] it was 3.51 µM (inactive); in test [9] it was 2.76 µM (inactive); in test [10] it was 1.87 µM (inactive); in test [11], 3.5 µM (inactive); in test [12] it was 4.62 µM (inactive). Also, the GI50 in test [13] is 3.02 µM (inactive); in test [14], 6.55 µM (inactive); in [15], 0.843 µM (active); in [16], 5.86 µM (inactive); in test [17], 4.57 µM (inactive); in test [18], 3.43 µM (inactive). The GI50 in [19] is > 100 µM (inactive); in [20] it was 5.86 µM (inactive).

As for `C#CCOCn1cc(C)c(=O)[nH]c1=O`, the GI50 in [1], in test [2], in test [3], in test [4], in test [5] and in test [6] was > 100 µM (inactive) throughout. For the same compound, the GI50 in test [7], in [8], in test [9], in test [10], in test [11] and in test [12] was > 100 µM (inactive) each time. For the same compound, the GI50 in [13], in test [14], in test [15], in [16], in test [17] and in test [18] was > 100 µM (inactive) in each case. Besides, the GI50 in test [19] and in test [20] was > 100 µM (inactive) throughout.

For the compound `CCOc1cc2c(NCCCN(CCO)CCO)ncnc2c(OCC)c1OCC`, the GI50 was > 100 µM (inactive) in test [1]; > 100 µM (inactive) in [2]; 22 µM (inactive) in test [3]; > 100 µM (inactive) in [4]; 82.2 µM (inactive) in [5]; > 100 µM (inactive) in test [6]. The GI50 was > 100 µM (inactive) in test [7]; > 100 µM (inactive) in test [8]; > 87.1 µM (inactive) in test [9]; 55.6 µM (inactive) in test [10]; > 100 µM (inactive) in test [11]; > 100 µM (inactive) in [12]. Besides, the GI50 was > 100 µM (inactive) in test [13]; > 87.3 µM (inactive) in [14]; > 100 µM (inactive) in [15]; > 100 µM (inactive) in [16]; > 74.8 µM (inactive) in [17]; > 100 µM (inactive) in test [18]. The GI50 in [19] and in [20] was > 100 µM (inactive) throughout.

In the case of `CN1CCCC(C(=O)OCC(=O)C2(O)CCC3C4CCC5=CC(=O)CCC5(C)C4C(O)CC32C)C1` (stereo not given), the GI50 in [1] was 24.2 µM (inactive); in test [2], 4.9 µM (inactive); in [3] it was 7.89 µM (inactive); in [4] it was 14.6 µM (inactive); in test [5], 35.3 µM (inactive); in test [6], 9.12 µM (inactive). The GI50 in test [7] is 10.9 µM (inactive); in test [8], 12.6 µM (inactive); in test [9], 18.7 µM (inactive); in test [10], 17 µM (inactive); in test [11], 20.5 µM (inactive); in [12], 19.9 µM (inactive). In addition, the GI50 in test [13] is 2.12 µM (inactive); in test [14], 19.5 µM (inactive); in [15] it was 19.1 µM (inactive); in test [16], 16.3 µM (inactive); in test [17], 4.85 µM (inactive); in [18], 1.96 µM (inactive). Further, the figures for the GI50 in test [19] and in test [20] were 12.5 µM (inactive) and 18.1 µM (inactive), respectively.

On to `COc1ccc(C(=O)c2[nH]c(Nc3ccc(Cl)cc3)c(C(=S)Nc3ccccc3)c2N)cc1`, for which the GI50 in test [1], in [2], in [3], in [4], in test [5] and in test [6] was > 100 µM (inactive) throughout. The GI50 in test [7] is > 100 µM (inactive); in [8], 70.5 µM (inactive); in [9], > 100 µM (inactive); in test [10], > 100 µM (inactive); in test [11], > 100 µM (inactive); in [12], > 100 µM (inactive). Besides, the GI50 was > 100 µM (inactive) in test [13]; > 100 µM (inactive) in [14]; > 100 µM (inactive) in test [15]; > 100 µM (inactive) in test [16]; 44 µM (inactive) in [17]; > 100 µM (inactive) in test [18]. The GI50 in test [19] and in test [20] was > 100 µM (inactive) in each case.

For the compound `O=C(O)c1ccc(S(=O)(=O)c2ccccc2[N+](=O)[O-])cc1`, the GI50 in test [1], in test [2], in [3], in test [4], in test [5] and in test [6] was > 10 µM (inactive) in each case. For the same compound, the GI50 in test [7], in test [8], in test [9], in test [10], in test [11] and in test [12] was > 10 µM (inactive) in each case. Further, the GI50 in [13], in test [14], in test [15], in test [16], in test [17] and in [18] was > 10 µM (inactive) each time. In addition, the GI50 in test [19] and in [20] was > 10 µM (inactive) in each case.

As for `COc1ccc2c(c1)CCC(CN1CCN(CCOC(c3ccc(F)cc3)c3ccc(F)cc3)CC1)=C2`, the GI50 in [1] was 18.9 µM (inactive); in [2] it was 14.1 µM (inactive); in test [3], 4.89 µM (inactive); in test [4], 33.9 µM (inactive); in test [5], 19.3 µM (inactive); in test [6] it was 4.47 µM (inactive). For the same compound, the GI50 was 15.6 µM (inactive) in test [7]; 13.6 µM (inactive) in [8]; 10 µM (inactive) in test [9]; 14.4 µM (inactive) in test [10]; 14.8 µM (inactive) in test [11]; 22.2 µM (inactive) in [12]. For the same compound, the GI50 in [13] is 13 µM (inactive); in test [14], 15.8 µM (inactive); in test [15], 5.22 µM (inactive); in [16], > 100 µM (inactive); in test [17] it was 46.5 µM (inactive); in test [18], 3.71 µM (inactive). In addition, the GI50 in test [19] is 14.3 µM (inactive); in [20], 16.1 µM (inactive).

Turning to `O=C1Nc2c(Cl)cc(Cl)cc2/C1=N/Nc1ccccc1[N+](=O)[O-]`, the GI50 was 39.4 µM (inactive) in test [1]; 46 µM (inactive) in [2]; > 100 µM (inactive) in test [3]; 5.47 µM (inactive) in test [4]; 8.32 µM (inactive) in test [5]; 38.6 µM (inactive) in test [6]. Further, the GI50 was 84.5 µM (inactive) in test [7]; > 100 µM (inactive) in [8]; 46.1 µM (inactive) in [9]; 29.2 µM (inactive) in test [10]; 26.1 µM (inactive) in test [11]; 11.7 µM (inactive) in [12]. The GI50 in test [13] was 13 µM (inactive); in test [14], 18.2 µM (inactive); in [15] it was > 100 µM (inactive); in test [16] it was 30.1 µM (inactive); in [17], 4.28 µM (inactive); in [18], 5.45 µM (inactive). Besides, the results for the GI50 in test [19] and in test [20] were 22.6 µM (inactive) and 22.2 µM (inactive), respectively.
